Patent EP0079489A1, “Methotrexate-labeled iodothyronine conjugates and method, reagent means and test device for the determination of iodothyronine in or iodothyronine uptake of a liquid sample” (MILES LABORATORIES, INC., priority 1981, dated 1983)

Key:
[1] = target: T1, bovine liver dihydrofolate reductase (Bos taurus, UniProt P00376); test: Inhibition of dihydrofolate reductase by the labeled conjugate (Example 1C); format: biochemical; conditions: for ΔA340/20 Min: 37°C, without conjugate 0.645
T1 construct: bovine liver dihydrofolate reductase (Sigma Chemical Co., St. Louis, MO); purchased Sigma Chemical Co., St. Louis, MO; host or cells: bovine liver
T1 sequence (P00376 1-187): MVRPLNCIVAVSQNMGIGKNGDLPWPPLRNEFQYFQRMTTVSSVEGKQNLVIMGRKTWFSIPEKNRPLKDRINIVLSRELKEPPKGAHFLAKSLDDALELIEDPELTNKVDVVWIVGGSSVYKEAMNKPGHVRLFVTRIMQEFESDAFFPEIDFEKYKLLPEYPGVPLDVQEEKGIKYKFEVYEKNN
Protocol: (§1) The standard assay consisted of 0.10 mM dihydrofolate (DHF), 0.10 mM NADPH, 0.001 unit/bovine liver dihydrofolate reductase (Sigma Chemical Co., St. Louis, MO) and 0.1 M sodium phosphate (pH 6.0) in a final volume of 2.0 ml. The reaction mixture without dihydrofolate was incubated at 37°C for 5 minutes, then the reaction was initiated by adding dihydrofolate, and an initial absorbance at 340 nm was recorded with a Gilford 250 spectrophotometer (Gilford Instrument Laboratories, Oberlin, OH). The reaction was allowed to proceed for 20 minutes at 37°C and then a final reading was recorded. The enzyme activity was expressed as the change in absorbance (AA) at 340 nanometers (nm) that occurred during the 20 minute (min) reaction.
Various concentrations of methotrexate-aminobutylthroxine conjugate were incubated with the standard concentrations of NADPH, dihydrofolate reductase and buffer for 5 minutes at 37°C. The reaction was initiated as discussed above with the addition of dihydrofolate.

Antibody to Thyroxine [2] = test: Titration of antibody to thyroxine with the labeled conjugate, dihydrofolate reductase activity read-out (Example 1D); format: binding; conditions: 75 µl of 0.16 µM conjugate (6 nM)
Protocol: as §1
Various concentrations of antibody to thyroxine and the standard concentrations of NADPH, 6 nM methotrexate-aminobutylthyroxine and buffers were incubated for 2 minutes at room temperature. Dihydrofolate reductase was then added, and the incubation was continued for 5 minutes at 37°C. The enzyme catalyzed reaction was initiated by addition of dihydrofolate and monitored as described above.

Antibody to Thyroxine [3] = test: Competitive binding assay for thyroxine, dihydrofolate reductase activity read-out (Example 1E); conditions: 100 µl of 0.16 µM conjugate
Protocol: as §1
The standard concentrations of NADPH, buffer, antibody to thyroxine and various concentrations of thyroxine were incubated at room remperature for a minimum of 30 seconds. Then 100 µl of […] methotrexate-aminobutylthyroxine was added and the mixture was incubated at room temperature for 2 minutes. Following the second incubation, dihydrofolate reductase was added and the mixture was incubated an additional 5 minutes at 37°C. The reaction was initiated and monitored in the usual manner.

[4] = system: Rabbit antibody to thyroxine; test: Titration of antibody to thyroxine with the labeled conjugate, thiazoyl blue colorimetric read-out (Example 2B); format: binding; conditions: 40 µl Reagent 5 (conjugate), 10 minutes
Protocol: Thyroxine-free serum was prepared by treatment of pooled human serum with charcoal [Larsen et al, J. Clin. Endocrinol. Metab. 37:177(1973)]. All reagents except thyroxine-free serum or as otherwise indicated below were prepared in 0.1 M sodium phosphate buffer, pH 6.5, containing 0.3 M potassium chloride and 0.005% sodium azide. • Reagent 1 - Mixture of 6.5 ml of 10 mM 8-anilinonaphthalene sulfonic acid and 10 ml of thyroxine-free serum. • Reagent 2 - Mixture of 1.0 ml of bovine liver dihydrofolate reductase (0.152 units/ml) and 1.0 ml of 11 mM thiazoyl blue. • Reagent 3 - 0.114 mM dihydrofolate in 0.085 M sodium phosphate buffer, pH 6.2, 0.255 mM potassium chloride, and 0.043% sodium azide. • Reagent 4 - Rabbit antibody to thyroxine diluted 10-fold in buffer. • Reagent 5 - […] methotrexate-thyroxine conjugate (Part A above) in 10 mM sodium carbonate buffer, pH 9.5. • Reagent 6 - 10 mM NADPH in 10 mM sodium carbonate buffer, pH 9.5.
Various amounts of Reagent 4 (indicated in Table 4 below) were mixed with 40 µl of Reagent 5, 90 µl of Reagent 6, and sufficient buffer to make a final volume of 625 pl. Then 175 µl of Reagent 1 was added to each followed by 250 µl of buffer and the incubation was continued. After 10 minutes from the addition of Reagent 3, the absorbance at 560 nm was recorded for each reaction mixture and shown in Table 4.

Row | SMILES | ΔA340/20 Min ([1]; 25 μl of 0.16 μM conjugate in 2.0 ml final volume) | ΔA340/20 Min ([1]; 50 μl of 0.16 μM conjugate in 2.0 ml final volume) | ΔA340/20 Min ([1]; 100 μl of 0.16 μM conjugate in 2.0 ml final volume) | ΔA340/20 Min ([1]; 200 μl of 0.16 μM conjugate in 2.0 ml final volume) | inhibition of dihydrofolate reductase (verdict in words) ([1]; various concentrations of conjugate, Table 1) | ΔA340/20 Min (Antibody to Thyroxine [2]; 10 µl antibody to thyroxine 1:9 dilution) | ΔA340/20 Min (Antibody to Thyroxine [2]; 20 µl antibody to thyroxine 1:9 dilution) | ΔA340/20 Min (Antibody to Thyroxine [2]; 40 µl antibody to thyroxine 1:9 dilution) | ΔA340/20 Min (Antibody to Thyroxine [2]; 80 µl antibody to thyroxine 1:9 dilution) | ΔA340/20 Min (Antibody to Thyroxine [2]; 160 µl antibody to thyroxine 1:9 dilution) | ΔA340/20 Min (Antibody to Thyroxine [2]; no antibody, without conjugate and antibody 0.691) | ΔA340/20 Min (Antibody to Thyroxine [3]; 30 µl antibody to thyroxine 1:4 dil, no thyroxine) | ΔA340/20 Min (Antibody to Thyroxine [3]; no antibody, without conjugate 0.620) | Average Absorbance (560 nm) ([4]; 20 µl Reagent 4 (rabbit antibody diluted 10-fold)) | Average Absorbance (560 nm) ([4]; 40 µl Reagent 4 (rabbit antibody diluted 10-fold)) | Average Absorbance (560 nm) ([4]; 80 µl Reagent 4 (rabbit antibody diluted 10-fold)) | Average Absorbance (560 nm) ([4]; 160 µl Reagent 4 (rabbit antibody diluted 10-fold)) | Average Absorbance (560 nm) ([4]; 320 µl Reagent 4 (rabbit antibody diluted 10-fold)) | Average Absorbance (560 nm) ([4]; no antibody solution, thyroxine-free serum present)
1 | CN(Cc1cnc2nc(N)nc(N)c2n1)c1ccc(C(=O)NC(CCC(=O)NCCCCNC(Cc2cc(I)c(Oc3cc(I)c(O)c(I)c3)c(I)c2)C(=O)O)C(=O)O)cc1 (stereo not shown) [Methotrexate-Aminobutyl-Thyroxine, Methotrexate-aminobutylthyroxine Conjugate] | 0.566 | 0.495 | 0.433 | 0.306 | effective inhibitor | 0.579 | 0.602 | 0.664 | 0.656 | 0.667 | 0.499 | 0.645 | 0.458 |  |  |  |  |  | 
2 | CN(Cc1cnc2nc(N)nc(N)c2n1)c1ccc(C(=O)NC(CCC(=O)NC(Cc2cc(I)c(Oc3cc(I)c(O)c(I)c3)c(I)c2)C(=O)O)C(=O)O)cc1 (stereo not shown) [methotrexate-thyroxine conjugate, Methotrexate-thyroxine Conjugate] |  |  |  |  |  |  |  |  |  |  |  |  |  | 0.538 | 0.581 | 0.632 | 0.689 | 0.737 | 0.478
